Patent US10131666B2, “Heterocyclic morphinan derivatives and use thereof” (Purdue Pharma L.P., priority 2014, dated 2018)

Assays:
μ-opioid receptor = biological target: T1, μ-opioid receptor (Homo sapiens, UniProt P35372); assay: μ-opioid receptor [35S]GTPγS functional assay; assay type: biochemical; settings: for Emax: maximal effect relative to the effect elicited by DAMGO, HEK-293 cells
T1 construct: host or cells: HEK-293; b235 lists HEK-293, CHO or U-2 OS)
Procedure: [^35S]GTPγS functional assays were conducted using freshly thawed μ-receptor membranes prepared in-house from a cell line expressing recombinant t opioid receptor in a HEK-293, CHO or U-2 OS cell background, or purchased from a commercial source (Perkin Elmer, Shelton, Conn.; or DiscovRx, Fremont, Calif.). Assay reactions were prepared by sequentially adding the following reagents to binding buffer (100 mM NaCl, 10 mM MgCl2, 20 mM HEPES, pH 7.4) on ice (final concentrations indicated): membrane protein (0.026 mg/mL), saponin ([…]), GDP ([…]) and [^35S]GTPγS (0.20 nM; Perkin Elmer, Shelton, Conn.). The prepared membrane solution (190 μl/well) was transferred to 96-shallow well polypropylene plates containing 10 al of 20× concentrated stock solutions of the agonist [D-Ala^2, N-methyl-Phe^4 Gly-ol^5]-enkephalin (DAMGO) prepared in dimethyl sulfoxide (DMSO). Plates were incubated for 30 min at about 25° C. with shaking. Reactions were terminated by rapid filtration onto 96-well Unifilter GF/B filter plates (Perkin Elmer, Shelton, Conn.) using a 96-well tissue harvester (Perkin Elmer, Shelton, Conn.) followed by three filtration washes with 200 μl of ice-cold wash buffer (10 mM NaH2PO4, 10 mM Na2HPO4, pH 7.4). Filter plates were subsequently dried at 50° C. for 2-3 hours. BetaScint scintillation cocktail (Perkin Elmer, Shelton, Conn.) was added (50 μl/well) and plates were counted using a Packard Top-Count for 1 min/well. Data were analyzed using the sigmoidal dose-response curve fitting functions in GraphPad PRISM v. 3.0, or an in-house function for non-linear, sigmoidal dose-response curve-fitting.
μGTP EC50 is the concentration of a compound providing 50% of the maximal response for the compound at a μ-opioid receptor.
μ GTP Emax (%) is the maximal effect elicited by a compound relative to the effect elicited by DAMGO, a standard agonist. Generally, the μ GTP Emax (%) value measures the efficacy of a compound to treat or prevent pain or other Conditions.
(§1) In TABLE 2, activity response of certain Compounds of the Invention to the μ- and κ-opioid receptors was determined as described above for functional assays using HEK-293 cells.

κ-opioid receptor [1] = biological target: T2, κ-opioid receptor (Homo sapiens, UniProt P41145); assay: κ-opioid receptor [35S]GTPγS functional assay; assay type: biochemical; design: expressed in transfected cells; host or cells: HEK-293 (in-house membranes); settings: for Emax: maximal effect relative to the effect elicited by U69,593, HEK-293 cells
Procedure: Functional [^35S]GTPγS binding assays were conducted as follows. K opioid receptor membrane solution was prepared by sequentially adding final concentrations of 0.026 μg/μl κ membrane protein (in-house), 10 μg/mL saponin, 3 μM GDP and 0.20 nM [^35S]GTPγS to binding buffer (100 mM NaCl, 10 mM MgCl2, 20 mM HEPES, pH 7.4) on ice. The prepared membrane solution (190 μl/well) was transferred to 96-shallow well polypropylene plates containing 10 μl of 20× concentrated stock solutions of agonist prepared in DMSO. Plates were incubated for 30 min at a temperature of about 25° C. with shaking. Reactions were terminated by rapid filtration onto 96-well Unifilter GF/B filter plates (Perkin Elmer, Shelton, Conn.) using a 96-well tissue harvester (Packard) and followed by three filtration washes with 200 μl ice-cold binding buffer (10 mM NaH2PO4, 10 mM Na2HPO4, pH 7.4). Filter plates were subsequently dried at 50° C. for 2-3 hours. Fifty μl/well scintillation cocktail (Perkin Elmer, Shelton, Conn.) was added and plates were counted in a Packard Top-Count for 1 min/well.
κ GTP EC50 is the concentration of a compound providing 50% of the maximal response for the compound at a κ receptor.
κ GTP Emax (%) is the maximal effect elicited by a compound relative to the effect elicited by U69,593.
as §1

κ-opioid receptor [2] = biological target: T2, κ-opioid receptor; assay: κ-opioid receptor radioligand dose displacement binding assay ([3H]-U69,593); design: expressed in transfected cells; host or cells: HEK-293 (in-house membrane prep)
Procedure: Membranes from HEK-293 cells, CHO or U-2 OS cells expressing the recombinant human kappa opioid receptor (K) were prepared by lysing cells in ice cold hypotonic buffer (2.5 mM MgCl2, 50 mM HEPES, pH 7.4) (10 mL/10 cm dish) followed by homogenization with a tissue grinder/Teflon pestle. Membranes were collected by centrifugation at 30,000×g for 15 min at 4° C. and pellets were resuspended in hypotonic buffer to a final concentration of 1-3 mg/mL. Protein concentrations were determined using the BioRad protein assay reagent with bovine serum albumen as standard. Aliquots of κ receptor membranes were stored at −80° C.
Radioligand dose displacement assays used 0.4 nM [^3H]-U69,593 (GE Healthcare, Piscataway, N.J.; 40 Ci/mmole) with 15 μg membrane protein (recombinant K opioid receptor expressed in HEK 293 cells; in-house prep) in a final volume of 200 μl binding buffer (5% DMSO, 50 mM Trizma base, pH 7.4). Non-specific binding was determined in the presence of 10 μM unlabeled naloxone or U69,593. All reactions were performed in 96-well polypropylene plates for 1 hour at a temperature of about 25° C. Binding reactions were terminated by rapid filtration onto 96-well Unifilter GF/C filter plates (Perkin Elmer, Shelton, Conn.) presoaked in 0.5% polyethylenimine (Sigma). Harvesting was performed using a 96-well tissue harvester (Perkin Elmer, Shelton, Conn.) followed by five filtration washes with 200 μl ice-cold binding buffer. Filter plates were subsequently dried at 50° C. for 1-2 hours. Fifty μl/well scintillation cocktail (Perkin Elmer, Shelton, Conn.) was added and plates were counted in a Packard Top-Count for 1 min/well.
In TABLE 1, binding affinity of certain Compounds of the Invention to the κ-opioid receptors was determined as described above.

T1 sequence (P35372 whole entry, species assumed): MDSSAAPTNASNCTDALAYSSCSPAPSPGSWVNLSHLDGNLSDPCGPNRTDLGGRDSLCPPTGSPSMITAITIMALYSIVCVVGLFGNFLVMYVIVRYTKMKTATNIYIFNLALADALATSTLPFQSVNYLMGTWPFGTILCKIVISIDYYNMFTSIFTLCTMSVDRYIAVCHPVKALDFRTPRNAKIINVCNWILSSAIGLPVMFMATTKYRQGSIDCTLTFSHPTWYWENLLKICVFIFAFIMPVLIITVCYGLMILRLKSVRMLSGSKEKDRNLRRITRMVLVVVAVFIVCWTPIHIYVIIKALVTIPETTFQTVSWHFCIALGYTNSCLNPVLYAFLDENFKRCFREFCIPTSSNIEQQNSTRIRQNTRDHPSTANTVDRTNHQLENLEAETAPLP
T2 sequence (P41145 whole entry): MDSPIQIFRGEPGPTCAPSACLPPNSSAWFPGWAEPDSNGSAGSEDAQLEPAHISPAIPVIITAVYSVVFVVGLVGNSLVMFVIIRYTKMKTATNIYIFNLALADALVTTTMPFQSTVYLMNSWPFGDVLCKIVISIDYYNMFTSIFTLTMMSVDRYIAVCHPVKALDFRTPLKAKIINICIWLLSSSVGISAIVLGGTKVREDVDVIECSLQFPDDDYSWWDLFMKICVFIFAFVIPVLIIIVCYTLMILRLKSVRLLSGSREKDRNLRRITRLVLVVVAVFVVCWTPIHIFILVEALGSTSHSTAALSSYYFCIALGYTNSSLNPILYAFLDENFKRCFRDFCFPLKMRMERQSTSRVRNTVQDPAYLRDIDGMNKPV

Structure (SMILES) | EC50 (μ-opioid receptor) [nM] | Emax (μ-opioid receptor) [%] | EC50 (κ-opioid receptor [1]) [nM] | Emax (κ-opioid receptor [1]) [%] | Ki (κ-opioid receptor [2]) [nM]
NC(=O)c1cc2c([nH]c1=O)C[C@]13CCN[C@H](Cc4ccc(O)cc41)[C@]3(O)C2 [Compound 6] | 2900 ± 868 | 23 ± 1 | – | – | –
CN1CC[C@]23Cc4[nH]c(=O)c(C(=O)N5Cc6ccccc6C5)cc4C[C@H]2[C@H]1Cc1ccc(O)cc13 [Compound 16, (6R,6aR,12aS)-2-hydroxy-9-(isoindoline-2-carbonyl)-15-methyl-6,6a,7,12-tetrahydro-5H-6,12a-(epiminoethano)naphtho[2,1-g]quinolin-10(11H)-one] | 40.2 ± 11.5 | 47 ± 2.65 | > 20000 | 0 | 1.41 ± 0.52
COC(=O)c1cc2c([nH]c1=O)C[C@]13CCN[C@H](Cc4ccc(OC)cc41)[C@]3(O)C2 [Compound 4, Methyl (6R,6aS,12aR)-6a-hydroxy-2-methoxy-10-oxo-6,6a,7,10,11,12-hexahydro-5H-6,12a-(epiminoethano)naphtho[2,1-g]quinoline-9-carboxylate] | > 20000 | 20 ± 2.08 | – | – | –
CN1CC[C@]23Cc4[nH]c(=O)c(C(=O)N5[C@@H]6CC[C@H]5C[C@@H](O)C6)cc4C[C@H]2[C@H]1Cc1ccc(O)cc13 [Compound 17, (6R,6aR,12aS)-2-hydroxy-9-((1R,3R,5S)-3-hydroxy-8-azabicyclo[3.2.1]octane-8-carbonyl)-15-methyl-6,6a,7,12-tetrahydro-5H-6,12a-(epiminoethano)naphtho[2,1-g]quinolin-10(11H)-one] | 240 ± 36.8 | 27.5 ± 2.53 | 152 ± 28.8 | 9.74 ± 1.51 | 17.7 ± 7.6
COC(=O)c1cc2c([nH]c1=O)C[C@]13CCN(C(=O)OC(C)(C)C)[C@H](Cc4ccc(OC)cc41)[C@]3(O)C2 [Compound 3, 15-(tert-Butyl) 9-methyl (6R,6aS,12aR)-6a-hydroxy-2-methoxy-10-oxo-6,6a,7,10,11,12-hexahydro-5H-6,12a-(epiminoethano)naphtho[2,1-g]quinoline-9,15-dicarboxylate] | > 20000 | 0 | – | – | –
CN1CC[C@]23Cc4[nH]c(=O)c(C(=O)N[C@@H]5c6ccccc6C[C@@H]5O)cc4C[C@H]2[C@H]1Cc1ccc(O)cc13 [Compound 13, (6R,6aR,12aS)-2-hydroxy-N-((1R,2S)-2-hydroxy-2,3-dihydro-1H-inden-1-yl)-15-methyl-10-oxo-6,6a,7,10,11,12-hexahydro-5H-6,12a-(epiminoethan)naphth[2-g]quinolinone-9-carboxamide] | 484 ± 113 | 34 ± 3.21 | – | – | –
CN1CC[C@]23Cc4[nH]c(=O)c(C(=O)N5CCS(=O)(=O)CC5)cc4C[C@H]2[C@H]1Cc1ccc(O)cc13 [Compound 18, (6R,6aR,12aS)-9-(1,1-dioxidothiomorpholine-4-carbonyl)-2-hydroxy-15-methyl-6,6a,7,12-tetrahydro-5H-6,12a-(epiminoethano)naphtho[2,1-g]quinolin-10(11H)-one] | 462 ± 88.4 | 33.2 ± 3.3 | – | – | –
CCn1c2c(cc(C(=O)N3Cc4ccccc4C3)c1=O)C[C@@]1(O)[C@H]3Cc4ccc(O)cc4[C@@]1(CCN3C)C2 [Compound 19, (6R,6aS,12aR)-11-ethyl-2,6a-dihydroxy-9-(isoindoline-2-carbonyl)-15-methyl-6,6a,7,12-tetrahydro-5H-6,12a-(epiminoethano)naphtho[2,1-g]quinolin-10(11H)-one] | 288 ± 49.6 | 30.8 ± 2.31 | – | – | –
CN1CC[C@]23Cc4[nH]c(=O)c(C(=O)N[C@H]5c6ccccc6C[C@H]5O)cc4C[C@H]2[C@H]1Cc1ccc(O)cc13 [Compound 14, (6R,6aR,12aS)-2-hydroxy-N-((1S,2R)-2-hydroxy-2,3-dihydro-1H-inden-yl)-15-methyl-10-oxo-6,6a,7,10,11,12-hexahydro-5H-6,12a-(epiminoethano)naphtho[2,1-g]quinoline-9-carboxamide] | 432 ± 135 | 34 ± 2.31 | – | – | –
COc1ccc2c(c1)[C@]13CCN(C)[C@H](C2)[C@@H]1Cc1cc(C(=O)O)c(=O)[nH]c1C3 [Compound 8, (6R,6aR,12aS)-2-methoxy-15-methyl-10-oxo-6,6a,7,10,11,12-hexahydro-5H-6,12a-(epiminoethano)naphtho[2,1-g]quinoline-9-carboxylic acid] | 13300 ± 1800 | 40.7 ± 5.04 | – | – | –
CN(C(=O)c1cc2c([nH]c1=O)C[C@]13CCN(C)[C@H](Cc4ccc(O)cc41)[C@@H]3C2)C1CCCCC1 [Compound 15, (6R,6aR,12aS)—N-cyclohexyl-2-hydroxy-N,15-dimethyl-10-oxo-6,6a,7,10,11,12-hexahydro-5H-6,12a-(epiminoethano)naphtho[2,1-g]quinoline-9-carboxamide] | 289 ± 34.8 | 29.7 ± 3.28 | – | – | –
CN1CC[C@]23Cc4[nH]c(=O)c(C(=O)NCc5ccccc5)cc4C[C@H]2[C@H]1Cc1ccc(O)cc13 [Compound 11, (6R,6aR,12aS)-N-benzyl-2-hydroxy-15-methyl-10-oxo-6,6a,7,10,11,12-hexahydro-5H-6,12a-(epiminoethano)naphtho[2,1-g]quinoline-9-carboxamide] | 332 ± 61.7 | 32.3 ± 0.88 | – | – | –
CN1CC[C@]23Cc4[nH]c(=O)c(C(=O)N5CCCC5)cc4C[C@H]2[C@H]1Cc1ccc(O)cc13 [Compound 12, (6R,6aR,12aS)-2-hydroxy-15-methyl-9-(pyrrolidine-1-carbonyl)-6,6a,7,12-tetrahydro-5H-6,12a-(epiminoethano)naphtho[2,1-g]quinolin-10(11H)-one] | 145 ± 27.9 | 35.3 ± 1.67 | 24.2 ± 11.9 | 9.5 ± 0.5 | 14.4 ± 2.81
COc1ccc2c(c1)[C@]13CCN(C(=O)OC(C)(C)C)[C@H](C2)[C@]1(O)Cc1cc(C(=O)O)c(=O)[nH]c1C3 [Compound 20, (6R,6aS,12aR)-15-(tert-butoxycarbonyl)-6a-hydroxy-2-methoxy-10-oxo-6,6a,7,10,11,12-hexahydro-5H-6,12a-(epiminoethano)naphtho[2,1-g]quinoline-9-carboxylic acid] | > 20000 | 3 | – | – | –
